Reference: patent publication US7332501B2, “Indol-3-yl-carbonyl-spiro-piperidine derivatives as V1a receptor antagonists” (Hoffmann-La Roche Inc., priority 2005, dated 2008)

Target: T1, human V1a receptor (Homo sapiens, UniProt P37288)
T1 construct: expressed in transfected cells; host or cells: HEK293 cells, transiently transfected; cell membranes
Test: human V1a receptor binding (3H-Vasopressin SPA, HEK293 membranes)
Settings: displacement of 4 nM 3H-Vasopressin, membranes of HEK293 cells transiently transfected with human V1a receptor; Ki from IC50 by Cheng-Prussoff
Experimental: The human V1a receptor was cloned by RT-PCR from total human liver RNA. The coding sequence was subcloned in an expression vector after sequencing to confirm the identity of the amplified sequence. […] Cell membranes were prepared from HEK293 cells transiently transfected with the expression vector and grown in 20 liter fermenters with the following protocol.
50 g cells are resuspended in 30 ml freshly prepared ice cold Lysis buffer (50 mM HEPES, 1 mM EDTA, 10 mM MgCl2 adjusted to pH=7.4+complete cocktail of protease inhibitor (Roche Diagnostics)). The cells are homogenized with Polytron for 1 min and sonicated on ice for 2×2 minutes at 80% intensity (Vibracell sonicator). The preparation is centrifuged 20 min at 500 g at 4° C., the pellet is discarded and the supernatant centrifuged 1 hour at 43,000 g at 4° C. (19,000 rpm). The pellet is resuspended in 12.5 ml Lysis buffer+12.5 ml Sucrose 20% and homogenized using a Polytron for 1-2 min. The protein concentration is determined by the Bradford method and aliquots are stored at −80° C. until use. For binding studies 60 mg Yttrium silicate SPA beads (Amersham) are mixed with an aliquot of membrane in binding buffer (50 mM Tris, 120 mM NaCl, 5 mM KCl, 2 mM CaCl2, 10 mM MgCl2) for 15 minutes with mixing. 50 ul of bead/membrane mixture is then added to each well of a 96 well plate, followed by 50 ul of 4 nM 3H-Vasopressin (American Radiolabeled Chemicals). For total binding measurement 100 ul of binding buffer are added to the respective wells, for non-specific binding 100 ul of […] cold vasopressin and for compound testing 100 ul of a serial dilution of each compound in 2% DMSO. The plate is incubated 1 h at room temperature, centrifuged 1 min at 1000 g and counted on a Packard Top-Count. Non-specific binding counts are subtracted from each well and data is normalized to the maximum specific binding set at 100%. To calculate an IC 50 the curve is fitted using a non-linear regression model (XLfit), and the Ki is calculated using the Cheng-Prussoff equation.

T1 sequence (P37288 whole entry): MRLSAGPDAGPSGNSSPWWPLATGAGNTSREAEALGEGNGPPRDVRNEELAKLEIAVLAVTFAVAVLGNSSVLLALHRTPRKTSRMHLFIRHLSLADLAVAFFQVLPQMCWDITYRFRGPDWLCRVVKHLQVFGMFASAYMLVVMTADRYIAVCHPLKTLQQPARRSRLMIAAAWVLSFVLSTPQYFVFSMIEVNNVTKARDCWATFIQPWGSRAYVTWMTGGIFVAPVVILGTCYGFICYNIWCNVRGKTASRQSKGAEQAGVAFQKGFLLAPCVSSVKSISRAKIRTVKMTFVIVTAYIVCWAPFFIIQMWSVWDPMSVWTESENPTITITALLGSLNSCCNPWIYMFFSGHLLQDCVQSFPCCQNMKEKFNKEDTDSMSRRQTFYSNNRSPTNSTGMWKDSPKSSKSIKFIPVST

Going from `CCC(C)C(=O)c1[nH]c2ccccc2c1C(=O)N1CCC2(CC1)OCc1ccccc12` (centres unmarked) [Example 72, 2-methyl-1-[3-(1′H,3H-spiro[2-benzofuran-1,4′-piperidin]-1′-ylcarbonyl)-1H-indol-2-yl]butan-1-one] to `CN(C)CCn1cc(C(=O)N2CCC3(CC2)OCc2ccccc23)c2ccccc21` [Example 71, N,N-dimethyl-2-[3-(1′H,3H-spiro[2-benzofuran-1,4′-piperidin]-1′-ylcarbonyl)-1H-indol-1-yl]ethanamine], the Ki rises from 2.9 nM to 5.6 nM (1.9-fold). The first binds more tightly here.

First: O=C(c1cn(Cc2cc(F)cc(F)c2)c2cc(Cl)ccc12)N1CCC2(CC1)OCc1ccccc12 [Example 219]
Second: O=C(c1cn(Cc2cc(F)cc(F)c2)c2cc(Cl)ccc12)N1CCC2(CC1)CNc1ccccc12 [Example 93]
The Ki of the first is 12-fold lower: 1.2 nM for the first, 13.8 nM for the second.

Compared with `Cc1cc(Cn2cc(C(=O)N3CCC4(CC3)OCc3ccccc34)c3ccc(Cl)cc32)ccn1` [Example 260, 1′-({6-Chloro-1-[(2-methylpyridin-4-yl)methyl]-1H-indol-3-yl}carbonyl)-3H-spiro[2-benzofuran-1,4′-piperidine]], `Cc1noc(C)c1Cn1cc(C(=O)N2CCC3(CC2)OCc2ccccc23)c2ccc(Cl)cc21` [Example 241] is 1.9-fold lower in Ki: 2.8 nM for the first, 1.5 nM for the second. The second binds more tightly here.

First: O=C(c1c[nH]c2cc(Cl)ccc12)N1CCC2(CCc3ccccc32)CC1 [Example 6, 1′-[(6-chloro-1H-indol-3-yl)carbonyl]-2,3-dihydrospiro[indene-1,4′-piperidine]]
Second: O=C(c1c[nH]c2cc(Cl)ccc12)N1CCC2(CC1)OCc1ccccc12 [Example 69, 1′-[(6-chloro-1H-indol-3-yl)carbonyl]-3H-spiro[2-benzofuran-1,4′-piperidine]]
The Ki of the first is 4.6-fold higher: 19.7 nM for the first, 4.3 nM for the second. The second binds more tightly here.

First: Cc1c(C(=O)N2CCC3(CC2)OCc2ccccc23)c2ccccc2n1Cc1cccc(F)c1 [Example 47, 1′-{[1-(3-fluorobenzyl)-2-methyl-1H-indol-3-yl]carbonyl}-3H-spiro[2-benzofuran-1,4′-piperidine]]
Second: COc1ccccc1Cn1c(C)c(C(=O)N2CCC3(CC2)OCc2ccccc23)c2ccccc21 [Example 54, 1′-{[1-(2-methoxybenzyl)-2-methyl-1H-indol-3-yl]carbonyl}-3H-spiro[2-benzofuran-1,4′-piperidine]]
The Ki of the first is 5-fold lower: 0.5 nM for the first, 2.5 nM for the second.

First: CN(C)C(=O)c1[nH]c2cc(Cl)ccc2c1C(=O)N1CCC2(CC1)OC(=O)c1cc(F)ccc12 [Example 29, 6-chloro-3-[(5-fluoro-3-oxo-1′H,3H-spiro[2-benzofuran-1,4′-piperidin]-1′-yl)carbonyl]-N,N-dimethyl-1H-indole-2-carboxamide]
Second: CN(CCNC(=O)c1[nH]c2cc(Cl)ccc2c1C(=O)N1CCC2(CC1)OC(=O)c1cc(F)ccc12)C(=O)OC(C)(C)C [Example 30, tert-butyl {2-[({6-chloro-3-[(5-fluoro-3-oxo-1′H,3H-spiro[2-benzofuran-1,4′-piperidin]-1′-yl)carbonyl]-1H-indol-2-yl}carbonyl)amino]ethyl}methylcarbamate]
The Ki of the first is 1.7-fold higher: 10.1 nM for the first, 5.8 nM for the second.

`CC(C)(C)OC(=O)Cn1cc(C(=O)N2CCC3(CC2)OC(=O)c2ccccc23)c2ccc(Cl)cc21` [Example 109, tert-Butyl {6-chloro-3-[(3-oxo-1′H,3H-spiro[2-benzofuran-1,4′-piperidin]-1′-yl)carbonyl]-1H-indol-1-yl}acetate] and `O=C1OC2(CCN(C(=O)c3cn(Cc4ccccn4)c4cc(Cl)ccc34)CC2)c2ccccc21` [Example 180, 1′-{[6-Chloro-1-(pyridin-2-ylmethyl)-1H-indol-3-yl]carbonyl}-3H-spiro[2-benzofuran-1,4′-piperidin]-3-one] are within 1.5-fold of each other in Ki: 1.1 nM for the first, 1.5 nM for the second.

Compared with `O=C1OC2(CCN(C(=O)c3cn(CC(=O)N4CCNCC4)c4cc(Cl)ccc34)CC2)c2ccc(F)cc21` [Example 117, 1′-{[6-Chloro-1-(2-oxo-2-piperazin-1-ylethyl)-1H-indol-3-yl]carbonyl}-5-fluoro-3H-spiro[2-benzofuran-1,4′-piperidin]-3-one], `CC(C)(C)OC(=O)N1CCOC(Cn2cc(C(=O)N3CCC4(CC3)OC(=O)c3cc(F)ccc34)c3ccc(Cl)cc32)C1` (centres unmarked) [Example 199, tert-Butyl 2-({6-chloro-3-[(5-fluoro-3-oxo-1′H,3H-spiro[2-benzofuran-1,4′-piperidin]-1′-yl)carbonyl]-1H-indol-1-yl}methyl)morpholine-4-carboxylate] is 2.8-fold higher in Ki: 1.2 nM for the first, 3.3 nM for the second.

Going from `O=C(c1cn(CCN2CCOCC2)c2cc(Cl)ccc12)N1CCC2(CC1)COc1ccccc12` [Example 84, 1′-{[6-chloro-1-(2-morpholin-4-ylethyl)-1H-indol-3-yl]carbonyl}spiro[1-benzofuran-3,4′-piperidine]] to `O=C(c1cn(CCN2CCOCC2)c2cc(Cl)ccc12)N1CCC2(CC1)OCc1ccccc12` [Example 256, 1′-{[6-Chloro-1-(2-morpholin-4-ylethyl)-1H-indol-3-yl]carbonyl}-3H-spiro[2-benzofuran-1,4′-piperidine]], the Ki falls from 3.6 nM to 2.4 nM (1.5-fold). The second binds more tightly here.

Compared with `O=C(c1cn(C[C@H]2CCCNC2)c2cc(Cl)ccc12)N1CCC2(CC1)OCc1ccccc12` [Example 261, 1′-({6-Chloro-1-[(3S)-piperidin-3-ylmethyl]-1H-indol-3-yl}carbonyl)-3H-spiro[2-benzofuran-1,4′-piperidine]], `CN1CCC[C@@H]1Cn1cc(C(=O)N2CCC3(CC2)OCc2ccccc23)c2ccc(Cl)cc21` [Example 269] is 1.7-fold lower in Ki: 1.7 nM for the first, 1 nM for the second. The second binds more tightly here.

Going from `O=C(c1c[nH]c2cc(Cl)ccc12)N1CCC2(C=Cc3ccccc32)CC1` [Example 5, 1′-[(6-chloro-1H-indol-3-yl)carbonyl]spiro[indene-1,4′-piperidine]] to `O=C(c1c[nH]c2cc(Cl)ccc12)N1CCC2(CC1)C(=O)Nc1ccc(Br)cc12` [Example 280, 5-Bromo-1′-[(6-chloro-1H-indol-3-yl)carbonyl]spiro[indole-3,4′-piperidin]-2(1H)-one], the Ki rises from 8.2 nM to 67.6 nM (8.2-fold). The first binds more tightly here.

Going from `O=C(Cn1cc(C(=O)N2CCC3(CC2)OCc2ccccc23)c2ccc(Cl)cc21)c1ccccn1` [Example 229, 2-[6-Chloro-3-(1′H,3H-spiro[2-benzofuran-1,4′-piperidin]-1′-ylcarbonyl)-1H-indol-1-yl]-1-pyridin-2-ylethanone] to `O=C(Cn1cc(C(=O)N2CCC3(CC2)CNc2ccccc23)c2ccc(Cl)cc21)c1ccccn1` [Example 101, 2-[6-Chloro-3-(1,2-dihydro-1′H-spiro[indole-3,4′-piperidin]-1′-ylcarbonyl)-1H-indol-1-yl]-1-pyridin-2-ylethanone], the Ki rises from 1.6 nM to 27.9 nM (17-fold).

Going from `O=C(c1cn(CC2CN(Cc3ccccc3)CCO2)c2cc(Cl)ccc12)N1CCC2(CC1)OCc1ccccc12` (centres unmarked) [Example 232, 1′-({1-[(4-Benzylmorpholin-2-yl)methyl]-6-chloro-1H-indol-3-yl}carbonyl)-3H-spiro[2-benzofuran-1,4′-piperidine]] to `O=C(c1cn(-c2cccc(F)c2)c2cc(Cl)ccc12)N1CCC2(CC1)OCc1ccccc12` [Example 223], the Ki falls from 5 nM to 2.5 nM (2-fold). The second binds more tightly here.

`Cc1nc(Cn2cc(C(=O)N3CCC4(CC3)OC(=O)c3cc(F)ccc34)c3ccc(Cl)cc32)c(C)o1` [Example 187, 1′-({6-Chloro-1-[(2,5-dimethyl-1,3-oxazol-4-yl)methyl]-1H-indol-3-yl}carbonyl)-5-fluoro-3H-spiro[2-benzofuran-1,4′-piperidin]-3-one] and `O=C1OC2(CCN(C(=O)c3cn(CCc4ccncc4)c4cc(Cl)ccc34)CC2)c2ccc(F)cc21` [Example 167, 1′-{[6-Chloro-1-(2-pyridin-4-ylethyl)-1H-indol-3-yl]carbonyl}-5-fluoro-3H-spiro[2-benzofuran-1,4′-piperidin]-3-one] are within 1.5-fold of each other in Ki: 3.6 nM for the first, 3 nM for the second.

`NC(=O)Cn1cc(C(=O)N2CCC3(CC2)OCc2ccccc23)c2ccc(Cl)cc21` [Example 250, 2-[6-Chloro-3-(1′H,3H-spiro[2-benzofuran-1,4′-piperidin]-1′-ylcarbonyl)-1H-indol-1-yl]acetamide] and `Cc1cc2c(C(=O)N3CCC4(CC3)OCc3ccccc34)cn(CC(=O)N(C)C)c2cc1Cl` [Example 213, 2-[6-Chloro-5-methyl-3-(1′H,3H-spiro[2-benzofuran-1,4′-piperidin]-1′-ylcarbonyl)-1H-indol-1-yl]-N,N-dimethylacetamide] are within 1.5-fold of each other in Ki: 4.1 nM for the first, 3.3 nM for the second.

Going from `COc1ccccc1-c1nc(Cn2c(C)c(C(=O)N3CCC4(CC3)OCc3ccccc34)c3ccccc32)c(C)o1` [Example 58, 1′-[(1-{[2-(2-methoxyphenyl)-5-methyl-1,3-oxazol-4-yl]methyl}-2-methyl-1H-indol-3-yl)carbonyl]-3H-spiro[2-benzofuran-1,4′-piperidine]] to `O=C1OC2(CCN(C(=O)c3cn(Cc4cc(F)cc(F)c4)c4cc(Cl)ccc34)CC2)c2ccc(Br)cc21` [Example 150, 5-Bromo-1′-{[6-chloro-1-(3,5-difluorobenzyl)-1H-indol-3-yl]carbonyl}-3H-spiro[2-benzofuran-1,4′-piperidin]-3-one], the Ki falls from 12.3 nM to 3.8 nM (3.2-fold).
